How the values were obtained:
PRKCE = PRKCE (Homo sapiens, UniProt Q02156); assay: Kinase selectivity screen; conditions: read-out: % Inhibition PRKCE
SRC = SRC (Homo sapiens, UniProt P12931); assay: Kinase selectivity screen; conditions: read-out: % Inhibition SRC
FGFR1 = FGFR1 (Homo sapiens, UniProt P11362); assay: Kinase selectivity screen; conditions: read-out: % Inhibition FGFR1
PIM2 = PIM2 (Homo sapiens, UniProt Q9P1W9); assay: Kinase selectivity screen; conditions: read-out: % Inhibition PIM2
EPHA5 = EPHA5 (Homo sapiens, UniProt P54756); assay: Kinase selectivity screen; conditions: read-out: % Inhibition EPHA5
CSNK2A2 = CSNK2A2 (Homo sapiens, UniProt P19784); assay: Kinase selectivity screen; conditions: read-out: % Inhibition CSNK2A2
PRKG1 = PRKG1 (Homo sapiens, UniProt Q13976); assay: Kinase selectivity screen; conditions: read-out: % Inhibition PRKG1
Full-length human MNK2 = Full-length human MNK2 (Homo sapiens, UniProt Q9HBH9, T379D); assay: MNK2 biochemical IC50 assay (Caliper mobility shift)
JAK3 = JAK3 (Homo sapiens, UniProt P52333); assay: Kinase selectivity screen; conditions: read-out: % Inhibition JAK3
FGFR3 = FGFR3 (Homo sapiens, UniProt P22607); assay: Kinase selectivity screen; conditions: read-out: % Inhibition FGFR3
AURKC = AURKC (Homo sapiens, UniProt Q9UQB9); assay: Kinase selectivity screen; conditions: read-out: % Inhibition AURKC
PLK1 = PLK1 (Homo sapiens, UniProt P53350); assay: Kinase selectivity screen; conditions: read-out: % Inhibition PLK1
INSRR = INSRR (Homo sapiens, UniProt P14616); assay: Kinase selectivity screen; conditions: read-out: % Inhibition INSRR
FYN = FYN (Homo sapiens, UniProt P06241); assay: Kinase selectivity screen; conditions: read-out: % Inhibition FYN
ROS1 = ROS1 (Homo sapiens, UniProt P08922); assay: Kinase selectivity screen; conditions: read-out: % Inhibition ROS1
EEF2K = EEF2K (Homo sapiens, UniProt O00418); assay: Kinase selectivity screen; conditions: read-out: % Inhibition EEF2K
CDK6/CCND3 = CDK6/CCND3 (Homo sapiens, UniProt Q00534); assay: Kinase selectivity screen; conditions: read-out: % Inhibition CDK6/CCND3
KIT = KIT (Homo sapiens, UniProt P10721); assay: Kinase selectivity screen; conditions: read-out: % Inhibition KIT
MAP3K7 = MAP3K7 (Homo sapiens, UniProt O43318); assay: Kinase selectivity screen; conditions: read-out: % Inhibition MAP3K7
AKT2 = AKT2 (Homo sapiens, UniProt P31751); assay: Kinase selectivity screen; conditions: read-out: % Inhibition AKT2
IRAK4 = IRAK4 (Homo sapiens, UniProt Q9NWZ3); assay: Kinase selectivity screen; conditions: read-out: % Inhibition IRAK4
YES1 = YES1 (Homo sapiens, UniProt P07947); assay: Kinase selectivity screen; conditions: read-out: % Inhibition YES1
JAK2 = JAK2 (Homo sapiens, UniProt O60674); assay: Kinase selectivity screen; conditions: read-out: % Inhibition JAK2
PIK3CD = PIK3CD (Homo sapiens, UniProt O00329); assay: Kinase selectivity screen; conditions: read-out: % Inhibition PIK3CD
MAP2K7 = MAP2K7 (Homo sapiens, UniProt O14733); assay: Kinase selectivity screen; conditions: read-out: % Inhibition MAP2K7
RPS6KA5 = RPS6KA5 (Homo sapiens, UniProt O75582); assay: Kinase selectivity screen; conditions: read-out: % Inhibition RPS6KA5
MET = MET (Homo sapiens, UniProt P08581); assay: Kinase selectivity screen; conditions: read-out: % Inhibition MET
CHEK1 = CHEK1 (Homo sapiens, UniProt O14757); assay: Kinase selectivity screen; conditions: read-out: % Inhibition CHEK1
MST1R = MST1R (Homo sapiens, UniProt Q04912); assay: Kinase selectivity screen; conditions: read-out: % Inhibition MST1R
MAP2K1 = MAP2K1 (Homo sapiens, UniProt Q02750); assay: Kinase selectivity screen; conditions: read-out: % Inhibition MAP2K1
STK4 = STK4 (Homo sapiens, UniProt Q13043); assay: Kinase selectivity screen; conditions: read-out: % Inhibition STK4
RPS6KB1 = RPS6KB1 (Homo sapiens, UniProt P23443); assay: Kinase selectivity screen; conditions: read-out: % Inhibition RPS6KB1
FLT3 = FLT3 (Homo sapiens, UniProt P36888); assay: Kinase selectivity screen; conditions: read-out: % Inhibition FLT3
DYRK2 = DYRK2 (Homo sapiens, UniProt Q92630); assay: Kinase selectivity screen; conditions: read-out: % Inhibition DYRK2

FYN, sequence (P06241 whole entry, species assumed): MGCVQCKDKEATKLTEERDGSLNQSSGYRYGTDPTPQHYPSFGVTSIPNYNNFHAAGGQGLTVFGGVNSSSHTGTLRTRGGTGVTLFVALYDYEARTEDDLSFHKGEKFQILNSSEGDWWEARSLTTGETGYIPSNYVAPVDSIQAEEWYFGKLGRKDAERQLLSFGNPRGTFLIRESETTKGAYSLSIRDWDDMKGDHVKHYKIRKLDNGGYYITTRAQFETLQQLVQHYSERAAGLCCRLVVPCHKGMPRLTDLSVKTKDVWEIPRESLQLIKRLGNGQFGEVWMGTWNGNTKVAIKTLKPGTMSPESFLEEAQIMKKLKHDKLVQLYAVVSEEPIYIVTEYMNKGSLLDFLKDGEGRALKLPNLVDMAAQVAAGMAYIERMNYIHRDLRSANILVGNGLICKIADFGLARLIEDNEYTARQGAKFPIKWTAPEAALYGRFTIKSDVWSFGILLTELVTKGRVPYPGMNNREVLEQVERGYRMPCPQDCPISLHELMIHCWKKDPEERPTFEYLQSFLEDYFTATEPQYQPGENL
SRC, sequence (P12931 whole entry, species assumed): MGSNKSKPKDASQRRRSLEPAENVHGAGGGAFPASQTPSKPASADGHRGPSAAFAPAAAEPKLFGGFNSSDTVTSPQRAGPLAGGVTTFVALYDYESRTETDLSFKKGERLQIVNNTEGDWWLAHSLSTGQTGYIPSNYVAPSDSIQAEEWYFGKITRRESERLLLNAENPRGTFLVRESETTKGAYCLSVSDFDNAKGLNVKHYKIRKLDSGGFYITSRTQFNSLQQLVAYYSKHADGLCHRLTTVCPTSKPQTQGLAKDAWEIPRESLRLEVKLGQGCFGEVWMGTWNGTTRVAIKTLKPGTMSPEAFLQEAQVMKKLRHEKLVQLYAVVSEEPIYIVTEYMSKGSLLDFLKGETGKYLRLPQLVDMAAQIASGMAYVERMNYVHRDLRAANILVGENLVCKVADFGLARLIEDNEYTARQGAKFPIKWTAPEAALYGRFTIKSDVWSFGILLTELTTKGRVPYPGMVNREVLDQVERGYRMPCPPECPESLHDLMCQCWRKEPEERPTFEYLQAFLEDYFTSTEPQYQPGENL
RPS6KB1, sequence (P23443 whole entry, species assumed): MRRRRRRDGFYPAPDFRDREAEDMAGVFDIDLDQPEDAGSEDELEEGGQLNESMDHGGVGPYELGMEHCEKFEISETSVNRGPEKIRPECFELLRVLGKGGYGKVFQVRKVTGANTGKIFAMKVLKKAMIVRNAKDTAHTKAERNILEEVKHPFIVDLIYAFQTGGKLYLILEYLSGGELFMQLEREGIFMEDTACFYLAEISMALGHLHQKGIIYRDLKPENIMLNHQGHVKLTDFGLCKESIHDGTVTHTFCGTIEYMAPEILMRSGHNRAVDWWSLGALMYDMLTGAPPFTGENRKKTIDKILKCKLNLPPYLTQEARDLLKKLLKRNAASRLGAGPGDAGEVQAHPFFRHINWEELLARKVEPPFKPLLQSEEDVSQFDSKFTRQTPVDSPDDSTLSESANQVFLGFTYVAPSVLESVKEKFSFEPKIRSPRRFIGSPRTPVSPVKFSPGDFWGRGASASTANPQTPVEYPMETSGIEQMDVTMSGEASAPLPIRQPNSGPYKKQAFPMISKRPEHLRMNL
MAP2K1, sequence (Q02750 whole entry, species assumed): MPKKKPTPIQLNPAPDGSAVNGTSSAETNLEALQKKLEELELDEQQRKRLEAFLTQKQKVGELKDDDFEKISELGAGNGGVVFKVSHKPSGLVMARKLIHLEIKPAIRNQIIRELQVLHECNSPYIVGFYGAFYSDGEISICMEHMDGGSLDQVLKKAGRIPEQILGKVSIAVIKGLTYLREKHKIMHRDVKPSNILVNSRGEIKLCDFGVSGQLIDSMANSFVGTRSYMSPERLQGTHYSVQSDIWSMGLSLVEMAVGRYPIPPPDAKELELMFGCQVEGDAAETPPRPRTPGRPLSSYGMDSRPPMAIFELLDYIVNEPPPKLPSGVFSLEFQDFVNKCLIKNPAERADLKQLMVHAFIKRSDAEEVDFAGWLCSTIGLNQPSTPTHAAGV
MET, sequence (P08581 25-1390): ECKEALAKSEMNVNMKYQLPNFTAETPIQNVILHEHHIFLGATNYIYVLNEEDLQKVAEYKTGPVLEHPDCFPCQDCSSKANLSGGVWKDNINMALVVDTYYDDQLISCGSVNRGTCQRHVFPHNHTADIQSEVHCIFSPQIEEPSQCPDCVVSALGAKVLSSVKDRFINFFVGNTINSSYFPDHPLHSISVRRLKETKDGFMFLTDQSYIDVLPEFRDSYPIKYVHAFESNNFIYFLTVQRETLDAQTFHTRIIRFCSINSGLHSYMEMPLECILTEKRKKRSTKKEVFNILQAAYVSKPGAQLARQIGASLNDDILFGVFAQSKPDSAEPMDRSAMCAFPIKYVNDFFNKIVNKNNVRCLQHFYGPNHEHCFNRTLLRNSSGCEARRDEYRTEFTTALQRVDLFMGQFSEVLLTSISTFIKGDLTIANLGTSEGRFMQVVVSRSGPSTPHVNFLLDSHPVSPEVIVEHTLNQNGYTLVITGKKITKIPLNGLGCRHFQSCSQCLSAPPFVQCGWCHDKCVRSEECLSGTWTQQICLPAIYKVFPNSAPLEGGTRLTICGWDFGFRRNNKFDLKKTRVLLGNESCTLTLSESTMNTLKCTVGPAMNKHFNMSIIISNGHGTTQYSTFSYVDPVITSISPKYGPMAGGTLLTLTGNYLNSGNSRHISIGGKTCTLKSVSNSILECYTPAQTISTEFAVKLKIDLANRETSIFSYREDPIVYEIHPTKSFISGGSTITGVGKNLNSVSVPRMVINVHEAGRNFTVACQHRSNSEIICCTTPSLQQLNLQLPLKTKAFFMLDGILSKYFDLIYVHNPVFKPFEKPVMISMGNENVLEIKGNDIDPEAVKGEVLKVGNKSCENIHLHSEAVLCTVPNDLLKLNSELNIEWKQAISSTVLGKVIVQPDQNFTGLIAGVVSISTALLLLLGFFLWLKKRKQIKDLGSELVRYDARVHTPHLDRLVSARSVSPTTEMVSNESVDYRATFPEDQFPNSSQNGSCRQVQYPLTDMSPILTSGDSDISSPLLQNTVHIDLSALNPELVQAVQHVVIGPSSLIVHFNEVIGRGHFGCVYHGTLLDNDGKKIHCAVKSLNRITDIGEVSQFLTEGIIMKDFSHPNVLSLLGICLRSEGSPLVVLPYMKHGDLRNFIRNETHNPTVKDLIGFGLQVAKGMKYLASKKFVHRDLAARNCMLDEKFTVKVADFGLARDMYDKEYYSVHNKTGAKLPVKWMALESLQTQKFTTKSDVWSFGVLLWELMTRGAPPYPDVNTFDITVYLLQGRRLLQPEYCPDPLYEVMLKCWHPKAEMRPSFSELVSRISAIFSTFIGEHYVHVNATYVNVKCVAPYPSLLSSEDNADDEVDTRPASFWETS
FGFR3, sequence (P22607 23-806, species assumed): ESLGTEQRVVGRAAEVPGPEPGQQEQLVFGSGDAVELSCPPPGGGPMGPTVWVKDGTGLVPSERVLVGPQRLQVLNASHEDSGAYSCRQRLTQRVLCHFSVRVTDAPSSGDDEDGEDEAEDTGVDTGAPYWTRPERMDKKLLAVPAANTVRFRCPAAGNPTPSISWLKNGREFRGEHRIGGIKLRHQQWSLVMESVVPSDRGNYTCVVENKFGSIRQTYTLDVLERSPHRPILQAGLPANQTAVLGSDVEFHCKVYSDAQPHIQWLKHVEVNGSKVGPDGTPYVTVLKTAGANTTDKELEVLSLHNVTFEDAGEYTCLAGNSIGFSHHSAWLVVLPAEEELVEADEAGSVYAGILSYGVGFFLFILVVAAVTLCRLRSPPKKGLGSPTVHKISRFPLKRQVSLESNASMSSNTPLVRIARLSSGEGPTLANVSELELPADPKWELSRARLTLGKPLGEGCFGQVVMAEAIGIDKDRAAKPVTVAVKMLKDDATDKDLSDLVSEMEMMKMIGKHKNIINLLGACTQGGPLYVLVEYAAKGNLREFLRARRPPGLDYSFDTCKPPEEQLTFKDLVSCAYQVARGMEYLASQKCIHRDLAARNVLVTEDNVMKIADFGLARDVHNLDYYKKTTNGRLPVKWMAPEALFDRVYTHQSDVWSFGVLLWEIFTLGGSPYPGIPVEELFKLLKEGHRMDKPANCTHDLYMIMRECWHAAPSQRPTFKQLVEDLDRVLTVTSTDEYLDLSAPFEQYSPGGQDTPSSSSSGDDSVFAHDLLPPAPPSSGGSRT
PLK1, sequence (P53350 whole entry, species assumed): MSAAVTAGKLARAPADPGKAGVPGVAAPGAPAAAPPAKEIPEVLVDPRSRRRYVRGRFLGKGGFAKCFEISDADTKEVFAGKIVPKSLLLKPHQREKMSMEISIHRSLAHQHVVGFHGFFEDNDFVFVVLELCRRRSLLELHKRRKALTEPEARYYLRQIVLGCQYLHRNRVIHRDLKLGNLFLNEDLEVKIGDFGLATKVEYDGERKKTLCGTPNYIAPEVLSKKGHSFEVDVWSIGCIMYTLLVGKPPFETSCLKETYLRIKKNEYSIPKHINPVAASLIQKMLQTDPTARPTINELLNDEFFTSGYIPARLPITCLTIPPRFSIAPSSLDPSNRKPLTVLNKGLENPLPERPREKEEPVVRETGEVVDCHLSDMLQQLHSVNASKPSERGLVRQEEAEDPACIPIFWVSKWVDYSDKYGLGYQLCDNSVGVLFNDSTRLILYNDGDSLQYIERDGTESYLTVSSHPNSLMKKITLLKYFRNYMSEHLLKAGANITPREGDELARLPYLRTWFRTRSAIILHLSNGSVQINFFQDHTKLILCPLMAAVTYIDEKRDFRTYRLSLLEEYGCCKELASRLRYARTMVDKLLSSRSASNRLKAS

CC(C)Oc1cc(F)ccc1Nc1ncnc2cc(C(=O)NCCCN(C)C)n(C)c12 [Example 40, N-[3-(dimethylamino)propyl]-4-{[4-fluoro-2-(propan-2-yloxy)phenyl]amino}-5-methyl-5H-pyrrolo[3,2-d]pyrimidine-6-carboxamide]
inhibition at 1 µM (PRKCE): 0%
inhibition at 1 µM (SRC): 0%
inhibition at 1 µM (FGFR1): 0%
inhibition at 1 µM (PIM2): 0%
inhibition at 1 µM (EPHA5): 0%
inhibition at 1 µM (CSNK2A2): 0%
inhibition at 1 µM (PRKG1): 0%
IC50 (Full-length human MNK2): 39.8 nM
inhibition at 1 µM (JAK3): 0%
inhibition at 1 µM (FGFR3): 10%
inhibition at 1 µM (AURKC): 28%
inhibition at 1 µM (PLK1): 0%
inhibition at 1 µM (INSRR): 0%
inhibition at 1 µM (FYN): 0%
inhibition at 1 µM (ROS1): 0%
inhibition at 1 µM (EEF2K): 0%
inhibition at 1 µM (CDK6/CCND3): 0%
inhibition at 1 µM (KIT): 2%
inhibition at 1 µM (MAP3K7): 5%
inhibition at 1 µM (AKT2): 0%
inhibition at 1 µM (IRAK4): 0%
inhibition at 1 µM (YES1): 0%
inhibition at 1 µM (JAK2): 0%
inhibition at 1 µM (PIK3CD): 2%
inhibition at 1 µM (MAP2K7): 0%
inhibition at 1 µM (RPS6KA5): 0%
inhibition at 1 µM (MET): 13%
inhibition at 1 µM (CHEK1): 0%
inhibition at 1 µM (MST1R): 0%
inhibition at 1 µM (MAP2K1): 0%
inhibition at 1 µM (STK4): 0%
inhibition at 1 µM (RPS6KB1): 0%
inhibition at 1 µM (FLT3): 24%
inhibition at 1 µM (DYRK2): 8%
